According to ChEMBL document CHEMBL1122200, “Novel opiates and antagonists. 5. 7-Carbethoxy-N-(cycloalkylmethyl)-3-hydroxymorphinan-6-ones and -isomorphinan-6-ones” (1982):

Legend:
Mus musculus = test: Analgesic activity by mouse writhing test after subcutaneous injection.; format: functional
Rattus norvegicus = test: Narcotic antagonist activity was measured by rat tail flick procedure after the drug was injected intraperitoneally; format: functional
[1] = Mus musculus, sc, read-out: ED50

Structure (SMILES) | ED50 (Mus musculus; [1]) [mg/kg] | AD50 (Rattus norvegicus) [mg/kg] | ED50 (Mus musculus) [mg/kg]
CCOC(=O)[C@@H]1CC2C3Cc4ccc(OC)cc4C2(CCN3CC2CC2)CC1=O (some centres not stated) | > 10 | >3 | –
CN1CCC23CC(=O)CC[C@H]2C1Cc1ccc(O)cc13 (some centres not stated) | 0.15 | – | –
CN1CCC23CC(=O)CC[C@@H]2C1Cc1ccc(O)cc13 (some centres not stated) | 0.23 | – | –
CN1CC[C@]23c4c5ccc(O)c4O[C@H]2[C@@H](O)C=C[C@H]3[C@H]1C5.CN1CC[C@]23c4c5ccc(O)c4O[C@H]2[C@@H](O)C=C[C@H]3[C@H]1C5.O=S(=O)(O)O | 0.8 | – | –
CC(C)=CCN1CC[C@]2(C)c3cc(O)ccc3C[C@H]1[C@H]2C [(+)-PENTAZOCINE] | 3.7 | 10.4 | –
O=C1CCC2C3Cc4ccc(O)cc4C2(CCN3CC2CC2)C1 (trans isomer) | – | 0.78 | >10
COc1ccc2c(c1)C13CCN(C)C(C2)[C@@H]1CCC(=O)C3 (some centres not stated) | 0.49 | – | –
O=C1CCC2C3Cc4ccc(O)cc4C2(CCN3CC2CC2)C1 (stereo in doubt; 9Ca) | – | 2.3 | 1.02
COc1ccc2c(c1)C13CCN(CC4CCC4)C(C2)C1CCC(=O)C3 (stereo in doubt; 5Cd) | – | >10 | 0.22
CC(C)(O)[C@H]1CC2C3Cc4ccc(O)cc4C2(CCN3CC2CC2)C[C@H]1O (some centres not stated) | > 10 | >10 | –
CCOC(=O)[C@@H]1CC2C3Cc4ccc(OC)cc4C2(CCN3C)CC1=O (some centres not stated) | 4.6 | – | –
COc1ccc2c(c1)C13CCN(C)C(C2)[C@H]1CCC(=O)C3 (some centres not stated) | 1.58 | – | –
CCOC(=O)[C@@H]1CC2C3Cc4ccc(O)cc4C2(CCN3CC2CC2)CC1=O (some centres not stated) | 4.9 | – | –
COc1ccc2c(c1)C13CCN(CC4CC4)C(C2)C1CCC(=O)C3 (trans isomer) | – | 1.3 | >10
CCOC(=O)[C@@H]1CC2C3Cc4ccc(O)cc4C2(CCN3C)CC1=O (some centres not stated) | 0.72 | – | –
CCOC(=O)[C@H]1CC2C3Cc4ccc(OC)cc4C2(CCN3C)CC1=O (some centres not stated) | > 10 | – | –
COc1ccc2c(c1)C13CCN(CC4CCC4)C(C2)C1CCC(=O)C3 (trans isomer) | – | – | 6.9
CCOC(=O)[C@@H]1CC2C3Cc4ccc(O)cc4C2(CCN3CC2CCC2)CC1=O (some centres not stated) | – | >10 | –
O=C1CCC2C3Cc4ccc(O)cc4C2(CCN3CC2CCC2)C1 (cis isomer) | 0.017 | >10 | –
CCOC(=O)[C@H]1CC2C3Cc4ccc(O)cc4C2(CCN3C)CC1=O (some centres not stated) | 0.6 | – | –
CCOC(=O)[C@H]1CC2C3Cc4ccc(OC)cc4C2(CCN3CC2CC2)CC1=O (some centres not stated) | > 10 | >10 | –
COc1ccc2c(c1)C13CCN(CC4CC4)C(C2)C1CCC(=O)C3 (stereo in doubt; 5Cc) | – | >3 | 0.24
C=CCN1CC[C@]23c4c5ccc(O)c4O[C@H]2[C@@H](O)C=C[C@H]3[C@H]1C5 [NALORPHINE] | – | 0.86 | –
CCOC(=O)[C@@H]1CC2C3Cc4ccc(OC)cc4C2(CCN3CC2CCC2)CC1=O (some centres not stated) | > 10 | >3 | –
CC(C)(O)[C@@H]1CC2C3Cc4ccc(O)cc4C2(CCN3CC2CC2)C[C@@H]1O (some centres not stated) | 6.9 | >10 | –
